Reference: ChEMBL document CHEMBL1201862, “PubChem BioAssay data set” (2004)
Calls of active or inactive are those of the source.

Legend:
[1] = system: H9c2; assay: cells; format: functional, cell-based; details: Rattus norvegicus, H9c2, Myocardium;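 also: confirmatory concentration-response retest of ultra-high-throughput screening hits for modulation of myocardial damage; cell death induced by hydrogen peroxide oxidative stress; compound pretreatment for 60 min then peroxide exposure for 2 h; potency is for protecting the cells against peroxide damage rather than for killing them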
[2] = target: Potassium voltage-gated channel subfamily KQT member 2 (Rattus norvegicus, UniProt O88943); assay: KCNQ2 potassium channel inhibitors, dose response, cell-based, automated electrophysiology, set II, rat KCNQ2 (AID 588637); format: functional
Sequence of Potassium voltage-gated channel subfamily KQT member 2 (O88943 whole entry): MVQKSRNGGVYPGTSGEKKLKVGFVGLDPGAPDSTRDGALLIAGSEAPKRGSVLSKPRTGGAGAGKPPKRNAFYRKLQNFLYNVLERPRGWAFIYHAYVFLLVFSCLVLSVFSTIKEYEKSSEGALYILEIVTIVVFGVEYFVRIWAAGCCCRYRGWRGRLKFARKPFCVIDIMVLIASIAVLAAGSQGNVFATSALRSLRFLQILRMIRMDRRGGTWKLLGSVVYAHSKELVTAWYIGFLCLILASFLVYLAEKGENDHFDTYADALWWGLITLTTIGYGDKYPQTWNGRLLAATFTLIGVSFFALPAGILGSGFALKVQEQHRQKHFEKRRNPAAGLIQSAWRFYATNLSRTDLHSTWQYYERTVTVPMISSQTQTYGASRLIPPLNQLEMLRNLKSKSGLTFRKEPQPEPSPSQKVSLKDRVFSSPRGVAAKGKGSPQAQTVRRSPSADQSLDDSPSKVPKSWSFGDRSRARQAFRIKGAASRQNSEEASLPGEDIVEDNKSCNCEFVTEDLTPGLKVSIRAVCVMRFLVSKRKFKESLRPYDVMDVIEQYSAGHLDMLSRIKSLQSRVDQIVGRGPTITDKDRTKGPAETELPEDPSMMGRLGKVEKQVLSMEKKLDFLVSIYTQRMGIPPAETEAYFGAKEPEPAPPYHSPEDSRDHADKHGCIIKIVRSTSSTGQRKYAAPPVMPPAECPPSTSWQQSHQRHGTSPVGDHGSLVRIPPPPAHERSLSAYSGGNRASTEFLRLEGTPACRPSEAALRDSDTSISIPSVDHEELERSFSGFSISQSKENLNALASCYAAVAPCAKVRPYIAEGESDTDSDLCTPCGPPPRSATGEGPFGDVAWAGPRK

[3] = target: Mitochondrial peptide methionine sulfoxide reductase (Bos taurus, UniProt P54149); format: functional;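 also: absorbance read-out, biochemical high-throughput dose-response screen for MsrA inhibitors, confirmatory; recombinant bovine MsrA coupled to E. coli TrxB with NADPH and selenocystamine; potency is for inhibitors of MsrA activity on DMSO substrate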
Sequence of Mitochondrial peptide methionine sulfoxide reductase (P54149 whole entry): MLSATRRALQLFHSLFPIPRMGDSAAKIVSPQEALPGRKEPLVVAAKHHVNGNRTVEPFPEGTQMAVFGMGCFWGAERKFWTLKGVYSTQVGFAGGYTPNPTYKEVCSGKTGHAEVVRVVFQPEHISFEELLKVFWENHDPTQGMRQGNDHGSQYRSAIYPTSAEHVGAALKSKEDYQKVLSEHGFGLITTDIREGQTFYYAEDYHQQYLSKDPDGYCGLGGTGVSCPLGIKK

[4] = target: Dual specificity tyrosine-phosphorylation-regulated kinase 1A (Rattus norvegicus, UniProt Q63470); format: biochemical, Homo sapiens
[5] = target: Cytochrome P450 2D6 (Homo sapiens, UniProt P10635);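 also: CYP2D6 member of a cytochrome P450 panel assay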
Sequence of Cytochrome P450 2D6 (P10635 whole entry): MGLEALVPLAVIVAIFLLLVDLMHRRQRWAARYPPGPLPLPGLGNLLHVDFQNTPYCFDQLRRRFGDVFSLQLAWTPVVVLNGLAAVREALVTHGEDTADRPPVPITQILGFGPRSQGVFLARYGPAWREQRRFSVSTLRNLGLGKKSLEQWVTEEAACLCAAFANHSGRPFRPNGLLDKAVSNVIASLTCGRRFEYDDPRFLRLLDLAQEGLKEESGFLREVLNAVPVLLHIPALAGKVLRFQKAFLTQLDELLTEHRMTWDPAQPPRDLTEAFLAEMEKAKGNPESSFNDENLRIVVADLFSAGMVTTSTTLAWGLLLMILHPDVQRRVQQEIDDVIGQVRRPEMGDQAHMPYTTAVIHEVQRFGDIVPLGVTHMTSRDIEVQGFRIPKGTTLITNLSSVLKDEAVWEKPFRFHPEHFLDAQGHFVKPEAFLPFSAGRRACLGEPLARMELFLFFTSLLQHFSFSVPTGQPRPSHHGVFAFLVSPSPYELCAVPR

[6] = target: T1, Sentrin-specific protease 7 (Homo sapiens, UniProt Q9BQF6); assay: SENP7 protease inhibitors, SAR follow-up, biochemical, luminescence (AID 504497); format: functional
T1 sequence (Q9BQF6 whole entry): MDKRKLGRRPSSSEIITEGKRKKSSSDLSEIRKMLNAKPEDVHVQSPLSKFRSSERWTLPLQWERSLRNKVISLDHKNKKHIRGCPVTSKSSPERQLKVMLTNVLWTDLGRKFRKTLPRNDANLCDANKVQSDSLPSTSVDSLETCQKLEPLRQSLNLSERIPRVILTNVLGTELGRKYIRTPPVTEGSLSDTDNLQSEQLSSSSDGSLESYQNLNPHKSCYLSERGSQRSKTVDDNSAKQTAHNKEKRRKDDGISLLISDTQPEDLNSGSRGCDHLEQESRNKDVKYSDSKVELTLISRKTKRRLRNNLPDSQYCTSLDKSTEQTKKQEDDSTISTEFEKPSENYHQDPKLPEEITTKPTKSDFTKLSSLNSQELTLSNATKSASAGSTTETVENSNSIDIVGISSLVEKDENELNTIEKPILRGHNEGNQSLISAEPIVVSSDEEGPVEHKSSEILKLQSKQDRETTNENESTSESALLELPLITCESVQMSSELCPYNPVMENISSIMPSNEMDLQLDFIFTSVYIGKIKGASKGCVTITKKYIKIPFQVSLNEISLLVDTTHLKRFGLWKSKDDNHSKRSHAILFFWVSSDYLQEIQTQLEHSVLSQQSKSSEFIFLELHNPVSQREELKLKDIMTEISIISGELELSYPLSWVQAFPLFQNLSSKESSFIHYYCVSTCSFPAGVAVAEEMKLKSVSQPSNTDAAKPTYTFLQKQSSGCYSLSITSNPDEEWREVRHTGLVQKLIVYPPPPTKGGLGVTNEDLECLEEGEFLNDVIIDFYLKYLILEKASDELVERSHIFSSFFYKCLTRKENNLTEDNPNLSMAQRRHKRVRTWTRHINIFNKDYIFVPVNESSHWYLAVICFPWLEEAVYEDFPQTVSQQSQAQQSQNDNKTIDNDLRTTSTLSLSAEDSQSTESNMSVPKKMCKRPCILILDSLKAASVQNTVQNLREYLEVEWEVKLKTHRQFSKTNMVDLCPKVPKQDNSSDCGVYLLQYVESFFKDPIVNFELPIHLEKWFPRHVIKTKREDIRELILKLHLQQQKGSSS

[7] = target: T2, Caspase-3 (Homo sapiens, UniProt P42574); assay: SAR Analysis of small molecule inhibitors of Sentrin-specific proteases (SENPs) using a Caspase-3 Selectivity assay. [Related pubchem assays (depositor defined):AID2540, AID2599, AID434973, AID489001]; format: functional
T2 sequence (P42574 whole entry): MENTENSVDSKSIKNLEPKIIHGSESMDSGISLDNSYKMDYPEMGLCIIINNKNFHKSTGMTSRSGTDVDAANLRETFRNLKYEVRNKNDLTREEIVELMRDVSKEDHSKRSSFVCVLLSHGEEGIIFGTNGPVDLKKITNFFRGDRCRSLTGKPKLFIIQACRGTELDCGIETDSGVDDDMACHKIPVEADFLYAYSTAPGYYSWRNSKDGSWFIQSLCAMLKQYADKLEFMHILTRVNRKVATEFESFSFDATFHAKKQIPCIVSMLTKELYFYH

[8] = target: T3, Sentrin-specific protease 6 (Homo sapiens, UniProt Q9GZR1); assay: SAR Analysis of small molecule inhibitors of Sentrin-specific protease 6 (SENP6) using a Luminescent assay. [Related pubchem assays (depositor defined):AID2582, AID2599]; format: functional
T3 sequence (Q9GZR1 whole entry): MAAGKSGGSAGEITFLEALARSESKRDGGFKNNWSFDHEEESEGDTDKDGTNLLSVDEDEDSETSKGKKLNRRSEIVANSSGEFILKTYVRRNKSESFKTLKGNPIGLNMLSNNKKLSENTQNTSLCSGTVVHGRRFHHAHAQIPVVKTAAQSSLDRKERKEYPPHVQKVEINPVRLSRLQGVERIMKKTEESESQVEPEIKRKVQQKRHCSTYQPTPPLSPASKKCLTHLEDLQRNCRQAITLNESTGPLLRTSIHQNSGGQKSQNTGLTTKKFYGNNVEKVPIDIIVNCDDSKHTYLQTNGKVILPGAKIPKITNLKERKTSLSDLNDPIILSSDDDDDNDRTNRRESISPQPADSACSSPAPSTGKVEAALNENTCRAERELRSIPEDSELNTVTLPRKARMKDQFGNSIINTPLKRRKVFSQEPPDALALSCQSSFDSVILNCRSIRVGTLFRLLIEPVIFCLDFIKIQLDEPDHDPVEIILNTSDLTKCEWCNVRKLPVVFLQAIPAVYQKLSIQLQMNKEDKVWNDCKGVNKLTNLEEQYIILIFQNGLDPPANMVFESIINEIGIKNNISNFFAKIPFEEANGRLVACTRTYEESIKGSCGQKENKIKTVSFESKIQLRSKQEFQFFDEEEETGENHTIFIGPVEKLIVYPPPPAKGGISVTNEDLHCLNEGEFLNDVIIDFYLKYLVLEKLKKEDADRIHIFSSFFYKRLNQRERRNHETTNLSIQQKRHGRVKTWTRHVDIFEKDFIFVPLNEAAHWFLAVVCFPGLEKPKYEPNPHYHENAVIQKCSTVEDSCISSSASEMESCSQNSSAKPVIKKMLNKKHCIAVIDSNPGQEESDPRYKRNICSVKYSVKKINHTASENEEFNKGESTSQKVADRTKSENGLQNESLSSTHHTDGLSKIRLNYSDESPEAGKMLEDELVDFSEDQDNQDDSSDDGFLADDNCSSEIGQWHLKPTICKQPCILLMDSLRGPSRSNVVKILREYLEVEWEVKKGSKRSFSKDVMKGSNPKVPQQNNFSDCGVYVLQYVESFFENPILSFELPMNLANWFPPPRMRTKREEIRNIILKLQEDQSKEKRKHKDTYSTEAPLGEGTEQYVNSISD

[9] = target: T4, Sentrin-specific protease 8 (Homo sapiens, UniProt Q96LD8); assay: SENP8 protease inhibitors, SAR follow-up, biochemical, luminescence (AID 504501); format: functional
T4 sequence (Q96LD8 whole entry): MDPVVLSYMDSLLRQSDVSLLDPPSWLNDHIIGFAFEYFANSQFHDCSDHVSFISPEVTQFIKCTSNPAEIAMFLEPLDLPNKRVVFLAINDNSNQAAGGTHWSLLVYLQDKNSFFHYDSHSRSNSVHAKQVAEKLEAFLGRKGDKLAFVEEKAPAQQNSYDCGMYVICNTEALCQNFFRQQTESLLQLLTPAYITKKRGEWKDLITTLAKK

[10] = cytotoxicity toward DRD oncogenic fibroblasts, dose response, cell-based, non-viral oncogenic, luminescence (AID 1934); format: functional; details: Homo sapiens
[11] = system: BJ; assay: cytotoxicity toward BJ-TERT-LT-ST fibroblasts, dose response, cell-based, RAS-independent, luminescence (AID 1935); format: functional; details: Homo sapiens;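 also: BJ fibroblasts immortalized with TERT plus LT and ST oncogenes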
[12] = system: BJ; assay: cytotoxicity toward BJ-TERT fibroblasts, dose response, cell-based, RAS-independent, luminescence (AID 1933); format: functional; details: Homo sapiens
[13] = system: BJ; assay: cells; format: functional, cell-based; details: Homo sapiens
[14] = system: BJ; assay: cytotoxicity toward Ras-transformed BJeLR fibroblasts, dose response, cell-based, alamar blue fluorescence, cherrypicked samples (AID 2631); format: functional; details: Homo sapiens;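 also: confirmatory dose-response assay in RAS-dependent BJ fibroblasts engineered with TERT, LT and ST, with cytotoxicity read by fluorescence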
[15] = system: INS1; assay: beta cell apoptosis inhibitors, cytokine rescue, dose response, luminescence, retest (AID 449756); format: functional, cell-based; details: Rattus norvegicus;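 also: cell death triggered by IL-1 beta plus TNF-alpha plus IFN-gamma mixture; protective hits raise ATP signal compared with cytokine alone wells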
[16] = target: T5, Apoptotic protease-activating factor 1 (Homo sapiens, UniProt O14727); format: functional
T5 sequence (O14727 whole entry): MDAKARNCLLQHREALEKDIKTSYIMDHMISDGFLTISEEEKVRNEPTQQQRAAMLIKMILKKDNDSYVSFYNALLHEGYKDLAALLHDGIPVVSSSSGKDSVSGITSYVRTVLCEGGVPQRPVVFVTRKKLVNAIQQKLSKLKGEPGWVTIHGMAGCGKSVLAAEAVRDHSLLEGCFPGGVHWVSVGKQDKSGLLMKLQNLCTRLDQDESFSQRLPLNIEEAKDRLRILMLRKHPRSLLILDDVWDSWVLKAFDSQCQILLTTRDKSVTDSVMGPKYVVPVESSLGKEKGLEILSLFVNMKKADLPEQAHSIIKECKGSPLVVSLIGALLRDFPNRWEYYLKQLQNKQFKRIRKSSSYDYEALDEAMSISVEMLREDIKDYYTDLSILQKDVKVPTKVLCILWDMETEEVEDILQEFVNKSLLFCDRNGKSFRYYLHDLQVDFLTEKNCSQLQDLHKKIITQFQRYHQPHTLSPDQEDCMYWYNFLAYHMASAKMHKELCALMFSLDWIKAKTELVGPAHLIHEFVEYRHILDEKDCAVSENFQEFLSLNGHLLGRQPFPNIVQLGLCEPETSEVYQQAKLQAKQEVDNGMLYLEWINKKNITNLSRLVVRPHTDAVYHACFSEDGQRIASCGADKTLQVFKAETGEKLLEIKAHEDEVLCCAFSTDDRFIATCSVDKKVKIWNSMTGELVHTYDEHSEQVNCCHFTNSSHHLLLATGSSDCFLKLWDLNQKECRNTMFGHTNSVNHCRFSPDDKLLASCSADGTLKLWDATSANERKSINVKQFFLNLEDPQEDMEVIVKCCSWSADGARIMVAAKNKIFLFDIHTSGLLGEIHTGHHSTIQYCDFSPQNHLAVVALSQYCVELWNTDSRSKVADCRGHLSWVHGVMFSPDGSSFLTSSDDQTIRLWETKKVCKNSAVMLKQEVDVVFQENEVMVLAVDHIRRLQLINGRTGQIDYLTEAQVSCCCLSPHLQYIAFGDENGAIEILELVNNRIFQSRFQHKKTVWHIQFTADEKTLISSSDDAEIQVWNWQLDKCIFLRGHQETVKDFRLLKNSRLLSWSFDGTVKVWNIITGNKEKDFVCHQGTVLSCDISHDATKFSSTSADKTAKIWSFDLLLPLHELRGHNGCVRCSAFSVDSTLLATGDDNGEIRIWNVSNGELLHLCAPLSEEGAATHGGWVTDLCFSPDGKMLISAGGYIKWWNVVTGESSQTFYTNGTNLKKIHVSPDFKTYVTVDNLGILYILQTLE

[17] = target: T6, Serine/threonine-protein phosphatase (Candida dubliniensis (strain CD36 / CBS 7987 / NCPF 3949 / NRRLY-17841) (Yeast), UniProt B9W6M3); assay: calcineurin pathway inhibitors in yeast reporter, dose response, S. cerevisiae, CDRE-lacZ, luminescence, secondary (AID 2388); format: functional, cell-based;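 also: yeast reporter cells carrying a calcineurin-responsive lacZ construct stimulated with calcium chloride; luminescent beta-galactosidase reporter signal in whole cells rather than isolated phosphatase activity; potency for inhibition where a drop in reporter signal means calcineurin blockade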
T6 sequence (B9W6M3 whole entry): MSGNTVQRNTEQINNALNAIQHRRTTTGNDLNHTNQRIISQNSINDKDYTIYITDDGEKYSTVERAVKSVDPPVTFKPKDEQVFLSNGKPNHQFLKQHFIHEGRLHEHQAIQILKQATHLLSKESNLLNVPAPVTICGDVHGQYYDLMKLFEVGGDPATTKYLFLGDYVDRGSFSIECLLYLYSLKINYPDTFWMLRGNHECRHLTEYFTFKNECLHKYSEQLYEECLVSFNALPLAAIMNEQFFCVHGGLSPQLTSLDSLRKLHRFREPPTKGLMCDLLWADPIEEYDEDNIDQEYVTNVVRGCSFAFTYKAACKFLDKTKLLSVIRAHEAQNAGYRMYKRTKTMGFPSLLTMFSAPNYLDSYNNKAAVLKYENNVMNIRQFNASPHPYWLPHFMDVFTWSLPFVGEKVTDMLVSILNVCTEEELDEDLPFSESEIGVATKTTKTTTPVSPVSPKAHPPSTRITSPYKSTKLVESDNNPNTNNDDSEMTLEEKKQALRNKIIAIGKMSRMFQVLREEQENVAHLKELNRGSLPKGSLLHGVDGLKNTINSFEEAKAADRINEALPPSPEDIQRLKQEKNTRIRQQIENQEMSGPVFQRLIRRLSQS

[18] = target: ATP-dependent molecular chaperone HSP82 (Candida albicans (strain WO-1) (Yeast), UniProt C4YTQ8); assay: loss of DOC-induced GRE-beta-galactosidase reporter signal, dose response, Hsp90 inhibitor project, S. cerevisiae, luminescence (AID 2400); format: functional, cell-based;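 also: beta-galactosidase luminescence from glucocorticoid response element reporter as proxy for Hsp90 function; inhibitor potency where signal loss means Hsp90 inhibition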
Sequence of ATP-dependent molecular chaperone HSP82 (C4YTQ8 whole entry): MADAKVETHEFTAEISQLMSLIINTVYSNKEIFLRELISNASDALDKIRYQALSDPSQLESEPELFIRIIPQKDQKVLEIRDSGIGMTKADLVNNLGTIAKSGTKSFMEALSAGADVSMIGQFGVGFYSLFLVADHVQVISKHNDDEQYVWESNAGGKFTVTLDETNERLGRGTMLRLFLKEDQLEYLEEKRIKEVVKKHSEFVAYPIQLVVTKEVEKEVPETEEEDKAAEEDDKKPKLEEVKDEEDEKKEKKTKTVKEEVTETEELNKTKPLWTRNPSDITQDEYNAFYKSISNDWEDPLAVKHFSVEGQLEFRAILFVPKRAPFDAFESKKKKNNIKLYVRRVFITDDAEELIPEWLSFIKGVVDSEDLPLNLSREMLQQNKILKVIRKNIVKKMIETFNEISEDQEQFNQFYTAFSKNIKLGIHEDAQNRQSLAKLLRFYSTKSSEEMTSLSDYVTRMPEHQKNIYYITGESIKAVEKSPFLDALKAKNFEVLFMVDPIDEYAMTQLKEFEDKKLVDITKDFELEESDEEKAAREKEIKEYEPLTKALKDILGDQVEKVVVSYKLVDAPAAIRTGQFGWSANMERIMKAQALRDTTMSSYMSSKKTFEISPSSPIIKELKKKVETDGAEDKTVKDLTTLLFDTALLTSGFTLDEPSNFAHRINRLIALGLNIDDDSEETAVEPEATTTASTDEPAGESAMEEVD

[19] = NIH-3T3 fibroblast cytotoxicity, dose response, cytotoxicity control, cell-based, fluorescence, Alamar Blue, secondary assay (AID 2327); format: functional;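 also: NIH-3T3 mouse fibroblasts cultured with fluconazole at 8 µg/mL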
[20] = C. albicans growth with fluconazole, confirmation, fluorescence, retest (AID 2467); format: functional, cell-based

COc1cc(-c2cc(C(=O)Nc3ccccc3N3CCOCC3)c3ccccc3n2)cc(OC)c1OC
IC50 [1]: > 79 µM (inactive)
IC50 [2]: 0.11 µM (active)

COc1cc2c(cc1O)C[C@H]1c3c(cc(O)c(OC)c3-2)CCN1C [BOLDINE]
IC50 [3]: 47.8 µM (inactive)
AC50 [4]: 4.84 µM (active)
AC50 [5]: 6.31 µM (inconclusive)

COc1ccc(C2CCCN2C(=O)c2sc3ccccc3c2Cl)cc1OC (stereo unspecified)
IC50 [6]: > 99 µM (inactive)
IC50 [7]: > 99 µM (inactive)
IC50 [8]: > 99 µM (inactive)
IC50 [9]: > 99 µM (inactive)

CCOc1ccc(/N=C/c2c(C)[nH]n(-c3nc4ccccc4[nH]3)c2=O)cc1
EC50 [10]: 2.52 µM (active)
EC50 [11]: 4.74 µM (inconclusive)
EC50 [12]: 1.22 µM (active)
EC50 [13]: 2.41 µM (active)
EC50 [14]: > 133 µM (inactive)
AC50 [15]: 1.98 µM (active)

Cc1ccccc1NC(=O)c1ccccc1N(C)S(=O)(=O)c1ccccc1
IC50 [2]: 0.0922 µM (active)

Cc1cccc(C)c1NC(=O)Cn1cc(C=O)c2ccccc21
IC50 [16]: > 100 µM (inactive)

CS(=O)(=O)NN1C(=O)c2ccccc2NC1c1cccc2cccnc12 (stereo unspecified)
EC50 [17]: > 180 µM (inactive)
EC50 [18]: > 160 µM (inactive)
EC50 [19]: > 160 µM (inactive)
EC50 [20]: 0.697 µM (active)

Cc1cccc(N/N=C/c2cn(Cc3ccccc3)c3ccccc23)c1
IC50 [6]: > 99 µM (inactive)
IC50 [7]: > 99 µM (inactive)
IC50 [8]: > 99 µM (inactive)
IC50 [9]: > 99 µM (inactive)

Cc1cccc(/N=c2\oc3cc(O)ccc3cc2C(N)=O)c1
IC50 [3]: 155 µM (inactive)
